Measurements reported in patent US12459940B2, “Oxazole compound as multi-targeted inhibitor of IRAK4 and BTK” (SHANGHAI FOSUN PHARMACEUTICAL INDUSTRIAL DEVELOPMENT CO., …, priority 2019, dated 2025).

Experiments:
human IRAK4 = biological target: T1, human IRAK4 (Homo sapiens, UniProt Q9NWZ3); assay: In vitro IRAK4 kinase activity, 33P isotope-labeled kinase activity assay (Reaction Biology Corp); type: biochemical; conditions: 33P-ATP, 120 minutes at room temperature; read-out: IRAK4/IC50
T1 construct: purchased Reaction Biology Corp
T1 sequence (Q9NWZ3 1-460): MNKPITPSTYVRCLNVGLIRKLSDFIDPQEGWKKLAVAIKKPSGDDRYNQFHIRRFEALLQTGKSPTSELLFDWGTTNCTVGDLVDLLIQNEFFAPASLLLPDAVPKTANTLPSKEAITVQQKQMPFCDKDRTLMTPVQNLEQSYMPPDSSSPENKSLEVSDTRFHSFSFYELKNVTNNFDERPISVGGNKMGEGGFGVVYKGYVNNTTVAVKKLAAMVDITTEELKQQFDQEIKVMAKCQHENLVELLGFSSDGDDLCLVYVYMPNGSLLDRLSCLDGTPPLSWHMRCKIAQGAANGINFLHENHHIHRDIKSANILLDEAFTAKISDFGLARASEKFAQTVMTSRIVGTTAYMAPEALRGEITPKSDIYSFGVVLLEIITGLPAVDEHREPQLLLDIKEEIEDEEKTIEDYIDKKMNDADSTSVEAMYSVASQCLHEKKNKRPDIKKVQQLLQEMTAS
Description: The IC50 values were determined using ^33P isotope-labeled kinase activity assay (Reaction Biology Corp) to evaluate the inhibitory ability of the tested compounds on human IRAK4.
(§1) Buffer conditions: 20 mM Hepes (pH 7.5), 10 mM MgCl2, 1 mM EGTA, 0.02% Brij35, 0.02 mg/mL BSA, 0.1 mM Na3VO4, 2 mM DTT, 1% DMSO.
Test procedure: At room temperature, the tested compound was dissolved in DMSO to prepare a 10 mM solution for later use. The substrate was dissolved in a newly prepared buffer solution, and the tested IRAK4 kinase was added thereto and mixed evenly. The DMSO solution dissolved with the tested compound was added to the above reaction mixture mixed evenly using acoustic technique (Echo 550). After incubation for 15 minutes, ^33P-ATP was added to initiate the reaction.

human BTK = biological target: T2, human BTK (Homo sapiens, UniProt Q06187); assay: In vitro BTK kinase activity, 33P isotope-labeled kinase activity assay (Reaction Biology Corp); type: biochemical; conditions: 33P-ATP, 2 hours at room temperature
T2 construct: purchased Reaction Biology Corp
T2 sequence (Q06187 whole entry): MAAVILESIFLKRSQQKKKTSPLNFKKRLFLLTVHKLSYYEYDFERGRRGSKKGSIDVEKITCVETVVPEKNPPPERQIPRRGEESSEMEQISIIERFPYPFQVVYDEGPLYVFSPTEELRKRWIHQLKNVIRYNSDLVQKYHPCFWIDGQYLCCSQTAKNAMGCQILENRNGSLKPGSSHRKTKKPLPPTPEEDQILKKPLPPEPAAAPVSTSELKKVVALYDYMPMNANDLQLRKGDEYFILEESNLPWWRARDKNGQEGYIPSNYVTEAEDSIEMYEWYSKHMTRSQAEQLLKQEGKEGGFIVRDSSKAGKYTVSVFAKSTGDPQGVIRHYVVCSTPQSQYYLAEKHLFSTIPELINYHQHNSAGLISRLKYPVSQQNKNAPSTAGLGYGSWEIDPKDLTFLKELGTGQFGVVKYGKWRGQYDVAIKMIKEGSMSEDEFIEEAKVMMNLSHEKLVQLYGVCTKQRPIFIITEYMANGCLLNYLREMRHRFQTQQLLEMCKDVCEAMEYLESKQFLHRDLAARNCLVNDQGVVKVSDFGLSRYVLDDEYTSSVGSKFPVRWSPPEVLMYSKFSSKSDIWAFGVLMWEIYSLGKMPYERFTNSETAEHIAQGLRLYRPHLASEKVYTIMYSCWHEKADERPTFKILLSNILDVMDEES
Description: The IC50 values were determined using ^33P isotope-labeled kinase activity assay (Reaction Biology Corp) to evaluate the inhibitory ability of the tested compounds on human BTK.
as §1
Test procedure: At room temperature, the tested compound was dissolved in DMSO to prepare a 10 mM solution for later use. The substrate was dissolved in a newly prepared buffer solution, and the tested BTK kinase was added thereto and mixed evenly. The compound dissolved in DMSO was added to the kinase reaction mixture through Echo 550 (Acoustic technology; Nanoliter range). After incubation for 20 minutes at room temperature, ^33P-ATP was added to initiate the reaction. The reaction was carried out at room temperature for 2 hours, and the radioactivity of the reaction liquid point was detected by filtration-binding method with P81 ion exchange filter paper. The kinase activity data were expressed by comparing the kinase activity of the group containing the tested compound with the kinase activity of the blank group (only containing DMSO), and the IC50 value was obtained by curve fitting by Prism4 software (GraphPad), the experimental results are shown in Table 10.

OCI-LY3 cell line = assay: OCI-LY3 cell proliferation inhibition (CTG); type: cell-based; conditions: Homo sapiens, incubated for 72 hours
Description: The tumor cell line used in this experiment was provided by Nanjing Cobioer Biotechnology Co., Ltd. See Table 13 below for specific information.
The tumor cell lines OCI-LY3 were used to detect the effect of the compound on inhibiting tumor cell proliferation in vitro. The OCI-LY3 cell line was cultured in the corresponding medium at 37° C. and 5% CO2, and the logarithmic growth phase cells were used in the experimental plating. The cells were collected and centrifuged at 800 rpm for 5 minutes, and the culture medium was re-suspended and spread in a 96-well plate. After incubating overnight in a 37° C., 5% CO2 incubator, the cells with different concentration gradients (10 μL of prepared diluent of the tested compound) were incubated for 72 hours, and the cell culture plates were incubated with CTG reagent at room temperature and away from light for 30 minutes, and then recovered to room temperature. 100 μL/hole of CTG solution was added into the biosafety cabinet away from light, and the plate shaker was shaken and mixed evenly away from light for 2 minutes, and incubated at room temperature away from light for 10 minutes. The luminescence values were read and recorded using the Perkin Elmer Envision 2104 MuLtilabel Reader.
The results of luminescence values measured at each drug concentration were normalized with the luminescence values of the blank control group, and the ratio of this value to the DMSO group was taken as the cell inhibition rate (%). Using GraphPad software, the logarithm of drug concentration (log drug concentration) versus inhibition rate was plotted, and the software automatically fitted and calculated IC50 value and 95% confidence limit value by log (inhibitor) vs. normalized response algorithm of nonlinear regression.

In the case of `Cc1cc(-c2nc(C(=O)Nc3cn4cc(CCC(C)(C)O)nc4cc3N3CCCCC3)co2)ccn1` [WX001], the IC50 (human IRAK4) is reported as 1 nM, the IC50 (human BTK) is reported as 6.7 nM and the IC50 (OCI-LY3 cell line) is reported as 1290 nM.
